Assay results published in US20230203031A1, “COMPOUNDS USEFUL FOR INHIBITING CDK7” (Eli Lilly and Company, priority 2020, published 2023).

Assays:
HCC1806 = assay: Cell proliferation assay (CELL TITER GLO), HCC1806; type: cell-based; conditions: Homo sapiens, 144 h; HCC1806 breast cancer, six days after compound addition
Method: (§1) Cell lines are plated at the density 5000 cells per well in 100 µL per well growth medium into a white 96-well cell culture plate. See Table 1 for cell line and culture medium information. Plates are incubated at 37° C. and 5% CO2. The following day, a serial dilution of the test compound is prepared by diluting the compound 1:3 in DMSO for 10 points. The DMSO plate is 1000X the final concentration. In addition to the CDK7 inhibitor, a DMSO alone column is included as a maximum growth control and 10 µM staurosporine final column is included as a maximum growth inhibition control. A 10X dilution plate is then prepared by adding 2 µL per well from the 1000X DMSO plate to 198 µL per well of OMEM (Life Technologies, Carlsbad, CA, cat#31985-070). Cells are treated with indicated compound by adding 11 µL per well from the 10X OMEM plate to the cell plate containing 100 µL per well growth medium for a 1X final concentration. Plates are placed back into the incubator at 37° C. and 5% CO2. Six or seven days after compound addition, for HCC1806 or A2780 cells respectively, plates are removed from the incubator and allowed to equilibrate to RT. […] After 15 minute incubation on shaker, luminescence is read, 1 second per well, using a Wallac VICTOR2™. […]

A2780 = assay: Cell proliferation assay (CELL TITER GLO), A2780; type: cell-based; conditions: Homo sapiens, 168 h; A2780 ovarian cancer, seven days after compound addition
Method: as §1

[1] = tested on: panel of 468 human kinases; assay: DiscoverX KINOMEscan selectivity profiling, 468 kinase panel; type: binding; conditions: CDK7 the only kinase with less than 35% control activity at 0.2 µM
Method: The purpose of the study is to generate an in vitro selectivity profile of the compounds of Example 8. To address selectivity, the compound of Example 8 is tested in a panel of 468 human kinases at DiscoverX Corporation using the KINOMEscan™ screening platform. KINOMEscan™ employs a novel and proprietary active site-directed competition binding assay to quantitatively measure interactions between test compounds and more than 450 human kinases and disease relevant mutant variants.
Compounds that bind the kinase active site and directly (sterically) or indirectly (allosterically) prevent kinase binding to an immobilized ligand, will reduce the amount of kinase captured on the solid support. […] Compound activity is monitored by measuring the amount of kinase captured in test versus control samples by using a qPCR method that detects the associated DNA label. Further information regarding the DiscoverX Corporation KINOMEscan™ screening platform can be found at http://www.discoverx.com.
Assays to monitor binding to a 468 kinase panel were conducted at DiscoverXⓇ Corporation (Fremont, CA). Example 8 is tested at 20 µM, 2 µM, and 0.2 µM final concentrations. Kinases are tagged with DNA for qPCR detection. […] The kinase concentration in the eluates is measured by qPCR. […]

Row | IC50 (HCC1806) [nM] | IC50 (A2780) [nM] | SMILES | selectivity against the 468 protein kinases panel [1]
1 | 19.5 | 22.8 | C=CC(=O)N1CCO[C@H](CN2CCC(Nc3cc(C(C)F)cn4c(C(C)C)cnc34)CC2)C1 (single isomer, unassigned) [Example 1] | 
2 |  |  | C=CC(=O)N1CCO[C@H](CN2CCC(Nc3cc(C(F)(F)F)cn4c(C(C)C)cnc34)CC2)C1 [Example 8, 1-[(2R)-2-[[4-[[3-isopropyl-6-(trifluoromethyl)imidazo[1,2-a]pyridin-8-yl]amino]-1-piperidyl]methyl]morpholin-4-yl]prop-2-en-1-one] | excellent selectivity
